Test system: Mtb (mc^26030)
Format: cell-based, Mycobacterium tuberculosis
Details: combined with meropenem

Compound	FICA (apparent FIC)
c1ccc(-c2nc3cc(Cc4ccc5[nH]c(-c6ccccn6)nc5c4)ccc3[nH]2)nc1 [Compound F0850-5995]	greater than 5.0
Cc1ccc(C)c(Nc2nc(NCc3ccccc3)c3ccccc3n2)c1 [Compound F0909-0124]	greater than 5.0
